Test results published in patent US10941152B2, “Pyrazole compounds as modulators of FSHR and uses thereof” (TOCOPHERX, INC., priority 2014, dated 2021).
pEC50: −log10 of the molar value.

Experiments:
[1] = molecular target: T1, follicle-stimulating hormone (FSH) receptor (Rattus norvegicus, UniProt P20395); assay: Rat granulosa EC50 FSH (Assay B); type: cell-based
T1 construct: endogenous in cells; host or cells: rat granulosa cells
T1 sequence (P20395 18-692): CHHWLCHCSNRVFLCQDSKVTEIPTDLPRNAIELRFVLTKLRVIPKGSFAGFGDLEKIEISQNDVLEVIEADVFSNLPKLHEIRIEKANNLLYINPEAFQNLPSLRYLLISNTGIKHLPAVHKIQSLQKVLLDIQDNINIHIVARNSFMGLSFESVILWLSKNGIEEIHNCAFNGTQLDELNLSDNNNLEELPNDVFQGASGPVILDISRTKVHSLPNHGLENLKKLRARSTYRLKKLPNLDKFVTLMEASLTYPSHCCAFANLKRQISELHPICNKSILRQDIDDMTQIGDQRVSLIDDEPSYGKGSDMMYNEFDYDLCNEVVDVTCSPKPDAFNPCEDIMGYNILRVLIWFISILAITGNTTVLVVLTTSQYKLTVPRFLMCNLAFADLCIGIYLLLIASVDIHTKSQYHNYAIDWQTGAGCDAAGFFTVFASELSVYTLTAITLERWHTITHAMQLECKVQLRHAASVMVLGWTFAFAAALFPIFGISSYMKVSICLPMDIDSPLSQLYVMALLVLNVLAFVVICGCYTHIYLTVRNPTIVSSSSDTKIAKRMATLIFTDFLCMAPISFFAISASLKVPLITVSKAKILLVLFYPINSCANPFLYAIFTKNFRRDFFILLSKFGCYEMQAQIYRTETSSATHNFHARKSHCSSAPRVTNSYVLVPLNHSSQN
Description: Example 25. Rat granulosa EC50 FSH (Assay B)
The assay was performed pursuant to the teaching of Yanofsky et al. (2006) Allosteric activation of the follicle-stimulating hormone (FSH) receptor by selective, nonpeptide agonists (JBC 281(19): 13226-13233, which is incorporated by reference in the disclosure of the invention).

FSHR = molecular target: T2, FSHR (Homo sapiens, UniProt P23945); assay: EC50 of cyclic AMP production in CHO FSHR cells + EC20 FSH (Assay A); type: cell-based; settings: cyclic AMP production in CHO FSHR cells + EC20 FSH (0.265 pM), HTRF
T2 construct: expressed in transfected cells; host or cells: CHO (Cho-FSHR-LUC-1-1-43)
T2 sequence (P23945 18-695): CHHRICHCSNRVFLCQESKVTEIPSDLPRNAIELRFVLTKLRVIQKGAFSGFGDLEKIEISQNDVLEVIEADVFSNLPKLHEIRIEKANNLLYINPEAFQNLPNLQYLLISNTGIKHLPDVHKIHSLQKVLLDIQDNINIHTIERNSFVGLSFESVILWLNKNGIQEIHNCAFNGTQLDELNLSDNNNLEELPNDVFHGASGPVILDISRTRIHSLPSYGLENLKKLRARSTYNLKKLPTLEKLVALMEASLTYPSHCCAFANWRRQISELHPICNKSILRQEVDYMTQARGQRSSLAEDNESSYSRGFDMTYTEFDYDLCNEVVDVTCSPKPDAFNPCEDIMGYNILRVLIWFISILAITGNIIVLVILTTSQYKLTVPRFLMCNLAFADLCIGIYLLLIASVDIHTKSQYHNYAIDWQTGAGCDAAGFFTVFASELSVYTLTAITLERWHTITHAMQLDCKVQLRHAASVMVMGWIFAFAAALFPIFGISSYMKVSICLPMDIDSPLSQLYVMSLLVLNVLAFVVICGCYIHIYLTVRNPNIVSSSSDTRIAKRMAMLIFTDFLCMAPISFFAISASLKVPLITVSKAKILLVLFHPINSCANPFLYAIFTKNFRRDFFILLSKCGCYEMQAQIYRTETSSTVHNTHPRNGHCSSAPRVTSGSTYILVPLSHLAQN
Procedure, shortened: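 cAMP was detected by HTRF as the 665/620 nm ratio. The CHO-FSHR cells had first been exposed for 1 h at 37° C to test compound together with 0.265 pM FSH (EC20) and 200 μM IBMX. Responses are given as percent of the FSH standard maximum.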

Row | SMILES | pEC50 [1] | pEC50 (FSHR)
1 | COc1cc2c(cc1-c1cncc(C(=O)O)c1)-c1c(c(C(=O)N3CCOCC3(C)C)nn1-c1cc(Cl)cc(Cl)c1)CO2 [Compound 178, 5-(1-(3,5-dichlorophenyl)-3-(3,3-dimethylmorpholine-4-carbonyl)-7-methoxy-1,4-dihydrochromeno[4,3-c]pyrazol-8-yl)nicotinic acid] | > 8.00 | > 8.00
2 | COc1cc2c(cc1-c1cccc(C(=O)O)c1)-c1c(c(C(=O)N(C)C(C)(C)C)nn1-c1cc(Cl)cc(Cl)c1)CO2 [Compound 179] | 6.30 to 7.00 | 7.00 to 8.00
3 | COc1cc2c(cc1-c1cnn(C(N)=O)c1)-c1c(c(C(=O)N(C)C(C)(C)C)nn1-c1cc(Cl)cc(Cl)c1)CO2 [Compound 181, N-tert-butyl-8-(1-carbamoyl-1H-pyrazol-4-yl)-1-(3,5-dichlorophenyl)-7-methoxy-N-methyl-1,4-dihydrochromeno[4,3-c]pyrazole-3-carboxamide] | 7.00 to 8.00 | > 8.00
4 | COc1cc2c(cc1-c1cncc(NC(C)=O)c1)-c1c(c(C(=O)N(C)C(C)(C)C)nn1-c1cc(Cl)cc(Cl)c1)CO2 [Compound 182, 8-(5-acetamidopyridin-3-yl)-N-tert-butyl-1-(3,5-dichlorophenyl)-7-methoxy-N-methyl-1,4-dihydrochromeno[4,3-c]pyrazole-3-carboxamide] | > 8.00 | > 8.00
5 | COc1cc2c(cc1-c1cncc(NC(N)=O)c1)-c1c(c(C(=O)N(C)C(C)(C)C)nn1-c1cc(Cl)cc(Cl)c1)CO2 [Compound 183, N-tert-butyl-1-(3,5-dichlorophenyl)-7-methoxy-N-methyl-8-(5-ureidopyridin-3-yl)-1,4-dihydrochromeno[4,3-c]pyrazole-3-carboxamide] | 7.00 to 8.00 | > 8.00
6 | COc1cc2c(cc1-c1ccn(C)n1)-c1c(c(C(=O)N3CCN(C#N)CC3(C)C)nn1-c1ccsc1)CO2 [Compound 184, 4-(7-methoxy-8-(1-methyl-1H-pyrazol-3-yl)-1-(thiophen-3-yl)-1,4-dihydrochromeno[4,3-c]pyrazole-3-carbonyl)-3,3-dimethylpiperazine-1-carbonitrile] | 7.00 to 8.00 | > 8.00
7 | COc1cc2c(cc1-c1cc(=O)[nH][nH]1)-c1c(c(C(=O)N(C)C(C)(C)C)nn1-c1ccsc1)CO2 [Compound 185, N-tert-butyl-7-methoxy-N-methyl-8-(5-oxo-2,5-dihydro-1H-pyrazol-3-yl)-1-(thiophen-3-yl)-1,4-dihydrochromeno[4,3-c]pyrazole-3-carboxamide] | 6.30 to 7.00 | 7.00 to 8.00
8 | COc1cc2c(cc1-c1cc(=O)[nH]n1C)-c1c(c(C(=O)N(C)C(C)(C)C)nn1-c1ccsc1)CO2 [Compound 187] | 6.30 to 7.00 | > 8.00
9 | CCN(C(=O)c1nn(-c2cc(Cl)cc(Cl)c2)c2c1COc1cc(OC)c(-c3ccn(C)n3)cc1-2)S(=O)(=O)CC [Compound 188, 1-(3,5-dichlorophenyl)-N-ethyl-N-(ethylsulfonyl)-7-methoxy-8-(1-methyl-1H-pyrazol-3-yl)-1,4-dihydrochromeno[4,3-c]pyrazole-3-carboxamide] | 6.30 to 7.00 | > 8.00
10 | COc1cc2c(cc1-c1cc(C)cnc1OC)-c1c(c(C(=O)N(C)C(C)(C)C)nn1-c1cc(Cl)cc(Cl)c1)CO2 [Compound 189, N-tert-butyl-1-(3,5-dichlorophenyl)-7-methoxy-8-(2-methoxy-5-methylpyridin-3-yl)-N-methyl-1,4-dihydrochromeno[4,3-c]pyrazole-3-carboxamide] | 6.30 to 7.00 | 7.00 to 8.00
11 | COc1cc2c(cc1-c1cnn(CC(O)CO)c1)-c1c(c(C(=O)N(C)C(C)(C)C)nn1-c1cc(Cl)cc(Cl)c1)CO2 (stereo not drawn) [Compound 190, N-tert-butyl-1-(3,5-dichlorophenyl)-8-(1-(2,3-dihydroxypropyl)-1H-pyrazol-4-yl)-7-methoxy-N-methyl-1,4-dihydrochromeno[4,3-c]pyrazole-3-carboxamide] | < 6.30 | 7.00 to 8.00
12 | COc1cc2c(cc1OC(C)CO)-c1c(c(C(=O)N(C)C(C)(C)C)nn1-c1ccsc1)CO2 (stereo not drawn) [Compound 193, N-tert-butyl-8-(1-hydroxypropan-2-yloxy)-7-methoxy-N-methyl-1-(thiophen-3-yl)-1,4-dihydrochromeno[4,3-c]pyrazole-3-carboxamide] | 6.30 to 7.00 | 7.00 to 8.00
13 | COc1cc2c(cc1-c1c[nH]nn1)-c1c(c(C(=O)N(C)C(C)(C)C)nn1-c1ccsc1)CO2 [Compound 194, N-tert-butyl-7-methoxy-N-methyl-1-(thiophen-3-yl)-8-(1H-1,2,3-triazol-4-yl)-1,4-dihydrochromeno[4,3-c]pyrazole-3-carboxamide] | < 6.30 | > 8.00
14 | COc1cc2c(cc1-c1cccc(CO)c1F)-c1c(c(C(=O)N(C)C(C)(C)C)nn1-c1cc(Cl)cc(Cl)c1)CO2 [Compound 195, N-tert-butyl-1-(3,5-dichlorophenyl)-8-(2-fluoro-3-(hydroxymethyl)phenyl)-7-methoxy-N-methyl-1,4-dihydrochromeno[4,3-c]pyrazole-3-carboxamide] | 7.00 to 8.00 | 7.00 to 8.00
15 | CCOC(=O)C1CC1c1cc2c(cc1OC)OCc1c(C(=O)N(C)C(C)(C)C)nn(-c3cc(Cl)cc(Cl)c3)c1-2 (stereo not drawn) [Compound 196] | 6.30 to 7.00 | > 8.00
16 | COc1cc2c(cc1C1CC1C(N)=O)-c1c(c(C(=O)N(C)C(C)(C)C)nn1-c1cc(Cl)cc(Cl)c1)CO2 (stereo not drawn) [Compound 199] | 6.30 to 7.00 | > 8.00
17 | COc1cc2c(cc1-c1nc[nH]n1)-c1c(c(C(=O)N(C)C(C)(C)C)nn1-c1ccsc1)CO2 [Compound 207, N-tert-butyl-7-methoxy-N-methyl-1-(thiophen-3-yl)-8-(1H-1,2,4-triazol-3-yl)-1,4-dihydrochromeno[4,3-c]pyrazole-3-carboxamide] | 6.30 to 7.00 | > 8.00
18 | COc1cc2c(cc1-c1ncnn1C)-c1c(c(C(=O)N(C)C(C)(C)C)nn1-c1ccsc1)CO2 [Compound 208] | < 6.30 | 7.00 to 8.00
